Source: ChEMBL document CHEMBL3045054, “Synthesis and insecticidal activity of novel 1-alkyl-3-sulfonyloxypyrazole-4-carboxamide derivatives” (2010)

Experiments:
Format in all cases: functional
[1] = test system: Tetranychus urticae; experiment: Insecticidal activity against Tetranychus urticae (two-spotted spider mite) eggs in compound treated kidney bean leaf disk assessed as ovicidal at 62.5 ppm measured after 7 days; settings: foliar, 168 h
[2] = test system: Tetranychus urticae; experiment: Insecticidal activity against Tetranychus urticae (two-spotted spider mite) in compound treated kidney bean leaf disk assessed as mortality at 62.5 ppm measured after 7 days; settings: foliar, 168 h
[3] = test system: Nephotettix cincticeps; experiment: Insecticidal activity against Nephotettix cincticeps (green rice leafhopper) third instar larvae in compound treated rice seedlings assessed as mortality at 62.5 ppm measured after 7 days; settings: 168 h
[4] = test system: Tetranychus urticae; experiment: Insecticidal activity against Tetranychus urticae (two-spotted spider mite) eggs in compound treated kidney bean leaf disk assessed as ovicidal at 3.1 ppm measured after 7 days; settings: foliar, 168 h
[5] = test system: Tetranychus urticae; experiment: Insecticidal activity against Tetranychus urticae (two-spotted spider mite) in compound treated kidney bean leaf disk assessed as mortality at 3.1 ppm measured after 7 days; settings: foliar, 168 h
[6] = test system: Nephotettix cincticeps; experiment: Insecticidal activity against Nephotettix cincticeps (green rice leafhopper) third instar larvae in compound treated rice seedlings assessed as mortality at 3.1 ppm measured after 7 days; settings: 168 h
[7] = test system: Nephotettix cincticeps; experiment: Insecticidal activity against Nephotettix cincticeps (green rice leafhopper) third instar larvae in compound treated rice seedlings assessed as mortality at 1.3 ppm measured after 7 days; settings: 168 h
[8] = test system: Tetranychus urticae; experiment: Insecticidal activity against Tetranychus urticae (two-spotted spider mite) eggs in compound treated kidney bean leaf disk assessed as ovicidal at 500 ppm measured after 7 days; settings: foliar, 168 h
[9] = test system: Tetranychus urticae; experiment: Insecticidal activity against Tetranychus urticae (two-spotted spider mite) in compound treated kidney bean leaf disk assessed as mortality at 500 ppm measured after 7 days; settings: foliar, 168 h
[10] = test system: Nephotettix cincticeps; experiment: Insecticidal activity against Nephotettix cincticeps (green rice leafhopper) third instar larvae in compound treated rice seedlings assessed as mortality at 500 ppm measured after 7 days; settings: 168 h
[11] = test system: Tetranychus urticae; experiment: Insecticidal activity against Tetranychus urticae (two-spotted spider mite) eggs in compound treated kidney bean leaf disk assessed as ovicidal at 1.3 ppm measured after 7 days; settings: foliar, 168 h
[12] = test system: Tetranychus urticae; experiment: Insecticidal activity against Tetranychus urticae (two-spotted spider mite) in compound treated kidney bean leaf disk assessed as mortality at 1.3 ppm measured after 7 days; settings: foliar, 168 h

SMILES | mortality at 62.5 ppm [1] | mortality at 62.5 ppm [2] | mortality at 62.5 ppm [3] | mortality at 3.1 ppm [4] | mortality at 3.1 ppm [5] | mortality at 3.1 ppm [6] | mortality at 1.3 ppm [7] | mortality at 500 ppm [8] | mortality at 500 ppm [9] | mortality at 500 ppm [10] | mortality at 1.3 ppm [11] | mortality at 1.3 ppm [12]
Cn1cc(C(=O)NCC(F)(F)F)c(OS(C)(=O)=O)n1 | 61% | 86% | 22% | – | – | – | – | – | – | – | – | –
CCCC(C#N)(CC)NC(=O)c1cn(C)nc1OS(C)(=O)=O (stereo not given) | 39% | 15% | 22% | – | – | – | – | – | – | – | – | –
Cn1cc(C(=O)NC2(C#N)CCCCC2)c(OS(C)(=O)=O)n1 | 20% | 93% | 50% | – | – | – | – | – | – | – | – | –
CCC(C#N)(CC)NC(=O)c1cn(C)nc1OS(C)(=O)=O | 100% | 100% | 100% | 100% | 100% | 55% | – | – | – | – | – | –
CC(C)C(C)(C#N)NC(=O)c1cn(C)nc1OS(C)(=O)=O (stereo not given) | 100% | 100% | 100% | 26% | 11% | 32% | – | – | – | – | – | –
CCC(C)(C#N)NC(=O)c1cn(C)nc1OS(C)(=O)=O (stereo not given) | 100% | 100% | 100% | 9% | 15% | 88% | – | – | – | – | – | –
CCCC(C)(C#N)NC(=O)c1cn(C)nc1OS(C)(=O)=O (stereo not given) | 67% | 64% | 100% | 3% | 8% | 81% | – | – | – | – | – | –
CCC(C#N)NC(=O)c1cn(C)nc1OS(C)(=O)=O (stereo not given) | 94% | 100% | 100% | 3% | 7% | 10% | – | – | – | – | – | –
Cn1cc(C(=O)NCC#N)c(OS(C)(=O)=O)n1 | 100% | 100% | 47% | 8% | 8% | – | – | – | – | – | – | –
CC(NC(=O)c1cn(C)nc1OS(C)(=O)=O)c1ccccc1 (stereo not given) | 0% | 0% | 81% | – | – | – | – | – | – | – | – | –
CCCCCC(C)NC(=O)c1cn(C)nc1OS(C)(=O)=O (stereo not given) | 6% | 29% | 94% | – | – | 8% | – | – | – | – | – | –
CCC(CC)NC(=O)c1cn(C)nc1OS(C)(=O)=O | 19% | 100% | 100% | – | 10% | 65% | – | – | – | – | – | –
Cn1cc(C(=O)NC(C)(C)C)c(OS(C)(=O)=O)n1 | 3% | 23% | 100% | – | – | 80% | – | – | – | – | – | –
CCCC(C)NC(=O)c1cn(C)nc1OS(C)(=O)=O (stereo not given) | 44% | 94% | 100% | 6% | 7% | 95% | – | – | – | – | – | –
CC(C)CNC(=O)c1cn(C)nc1OS(C)(=O)=O | 12% | 89% | 100% | – | – | 100% | 97% | – | – | – | – | –
Cn1cc(C(=O)NC2CC2)c(OS(C)(=O)=O)n1 | 9% | 21% | 97% | – | – | 10% | – | – | – | – | – | –

SMILES | mortality at 62.5 ppm [1] | mortality at 62.5 ppm [2] | mortality at 62.5 ppm [3] | mortality at 3.1 ppm [4] | mortality at 3.1 ppm [5] | mortality at 3.1 ppm [6] | mortality at 1.3 ppm [7] | mortality at 500 ppm [8] | mortality at 500 ppm [9] | mortality at 500 ppm [10] | mortality at 1.3 ppm [11] | mortality at 1.3 ppm [12]
CC(C)N(C)C(=O)c1cn(C)nc1OS(C)(=O)=O | 5% | 10% | 41% | – | – | – | – | – | – | – | – | –
CCNC(=O)c1cn(C)nc1OS(C)(=O)=O | 0% | 0% | 0% | – | – | – | – | – | – | – | – | –
CCCNC(=O)c1cn(C)nc1OS(C)(=O)=O | 7% | 25% | 87% | – | – | – | – | – | – | – | – | –
CNC(=O)c1cn(C)nc1OS(C)(=O)=O | 4% | 19% | 20% | – | – | – | – | – | – | – | – | –
CC(C)NC(=O)c1cn(C)nc1OS(=O)(=O)N(C)C | 0% | 0% | 0% | – | – | – | – | – | – | – | – | –
CC(C)NC(=O)c1cn(C)nc1OS(=O)(=O)C(F)(F)F | 10% | 15% | 24% | – | – | – | – | – | – | – | – | –
CC(C)NC(=O)c1cn(C)nc1OS(=O)(=O)CCl | 13% | 15% | 100% | – | – | 10% | – | – | – | – | – | –
CCS(=O)(=O)Oc1nn(C)cc1C(=O)NC(C)C | 2% | 14% | 100% | – | – | 55% | – | – | – | – | – | –
CCS(=O)(=O)Oc1nn(C(C)(C)C)cc1C(=O)NC(C)C | – | – | – | – | – | – | – | 0% | 50% | 0% | – | –
CC(C)NC(=O)c1cn(C(C)C)nc1OS(C)(=O)=O | 47% | 50% | 100% | – | – | 74% | – | – | – | – | – | –
CCCn1cc(C(=O)NC(C)C)c(OS(C)(=O)=O)n1 | 26% | 36% | 100% | – | – | 76% | – | – | – | – | – | –
CCn1cc(C(=O)NC(C)C)c(OS(C)(=O)=O)n1 | 13% | 51% | 100% | – | – | 100% | – | – | – | – | – | –
CC(C)NC(=O)c1cn(CCCl)nc1OS(C)(=O)=O | 34% | 80% | 100% | 30% | 15% | 96% | – | – | – | – | – | –
CC(C)NC(=O)c1cn(CCF)nc1OS(C)(=O)=O | 69% | 50% | 100% | – | – | 43% | – | – | – | – | – | –
CC(C)NC(=O)c1cn(C)nc1OS(C)(=O)=O | 37% | 100% | 100% | 23% | 17% | 100% | 74% | – | – | – | 22% | 16%
